Key:
[1] = tested on: HEK293; experiment: Cytotoxicity against HEK293 cells assessed as cell damage at 50 uM incubated for 48 hrs by fluorometric method; type: toxicity, cell-based; conditions: human, hek293, 48 h
[2] = target: T1, 3-hydroxyacyl-CoA dehydrogenase type-2 (Homo sapiens, UniProt Q99714); experiment: Inhibition of recombinant 17beta-HSD10 (unknown origin) using ALLOP as substrate and NAD+ as cofactor preincubated for 5 mins followed by substrate addition and measured after 20 mins by fluorometric assay
T1 sequence (Q99714 whole entry): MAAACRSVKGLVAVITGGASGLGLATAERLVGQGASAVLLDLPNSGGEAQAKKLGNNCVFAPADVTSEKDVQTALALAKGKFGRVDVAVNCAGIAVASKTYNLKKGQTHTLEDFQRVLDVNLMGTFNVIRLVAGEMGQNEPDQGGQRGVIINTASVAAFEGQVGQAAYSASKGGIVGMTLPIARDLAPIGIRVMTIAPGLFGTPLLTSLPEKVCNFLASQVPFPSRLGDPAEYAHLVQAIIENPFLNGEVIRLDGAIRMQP

[3] = target: T1, 3-hydroxyacyl-CoA dehydrogenase type-2; experiment: Mixed type inhibition of recombinant 17beta-HSD10 (unknown origin) using E2 as substrate and NAD+ as cofactor preincubated for 5 mins followed by substrate addition and measured after 20 mins by fluorometric assay
[4] = target: T1, 3-hydroxyacyl-CoA dehydrogenase type-2; experiment: Inhibition of recombinant 17beta-HSD10 (unknown origin) using E2 as substrate and NAD+ as cofactor preincubated for 5 mins followed by substrate addition and measured after 20 mins by fluorometric assay

| SMILES | Activity [1] | further results |
| --- | --- | --- |
| CC(=O)Nc1ccc2nc(NCc3ccc(O)c(C(F)(F)F)c3)sc2c1 | Non-Toxic |  |
| CS(=O)(=O)Nc1ccc2nc(NC(=O)Nc3ccc(O)c(Cl)c3)sc2c1 | Non-Toxic |  |
| NS(=O)(=O)c1ccc2nc(NC(=O)Nc3ccc(O)c(Cl)c3)sc2c1 | Non-Toxic |  |
| O=C(Nc1ccc(O)c(Cl)c1)Nc1nc2cc(C(=O)O)ccc2s1 | Non-Toxic |  |
| CC(=O)Nc1ccc2nc(NCc3ccc(O)c(Cl)c3)sc2c1 | Non-Toxic |  |
| CC(=O)Nc1ccc2nc(N(CCc3ccc(O)c(Cl)c3)C(C)=O)sc2c1 | Non-Toxic |  |
| NC(=O)Nc1ccc2nc(NC(=O)Nc3ccc(O)c(Cl)c3)sc2c1 | Non-Toxic | IC50 [2]: 330 nM; IC50 [3]: 270 nM |
| O=C(Nc1ccc(O)c(Cl)c1)Nc1nc2ccc(C(=O)O)cc2s1 |  | IC50 [4]: 1810 nM |
| CC(=O)Nc1ccc2nc(NC(=O)Nc3ccc(O)c(C(F)(F)F)c3)sc2c1 | Non-Toxic |  |
| O=C(O)c1ccc2nc(NCc3ccc(O)c(Cl)c3)sc2c1 | Non-Toxic |  |
| O=C(O)c1ccc2nc(NC(=O)c3ccc(O)c(Cl)c3)sc2c1 | Non-Toxic |  |
| CC(=O)Nc1ccc2nc(NCCc3ccc(O)c(Cl)c3)sc2c1 | Non-Toxic |  |
| CC(=O)Nc1ccc2nc(NC(=O)Nc3ccc(O)c(Cl)c3)sc2c1 |  | IC50 [4]: 1150 nM |
| O=C(O)c1ccc2nc(NCCc3ccc(O)c(Cl)c3)sc2c1 | Non-Toxic |  |
| O=C(Nc1ccc(O)c(C(F)(F)F)c1)Nc1nc2ccc(C(=O)O)cc2s1 | Non-Toxic | IC50 [2]: 250 nM; IC50 [3]: 340 nM |
| O=C(Nc1ccc(O)c(Cl)c1)Nc1nc2ccc(-c3nnn[nH]3)cc2s1 | Non-Toxic | IC50 [2]: 95 nM; IC50 [3]: 410 nM |

Reference: ChEMBL document CHEMBL5390298, “Nanomolar Benzothiazole-Based Inhibitors of 17β-HSD10 with Cellular Bioactivity” (ACS Med Chem Lett, 2023)
